How the values were obtained:
[1] = target: T1, Growth hormone secretagogue receptor type 1 (Homo sapiens, UniProt Q92847); test: Displacement of [35S]MK677 from human ghrelin receptor expressed in african green monkey COS7 cells; type: cell-based, COS-7
[2] = target: T1, Growth hormone secretagogue receptor type 1; test: Inverse agonist activity at human ghrelin receptor expressed in african green monkey COS7 cells assessed as constitutively stimulated inositol phosphate accumulation; type: functional, cell-based, COS-7

T1 sequence (Q92847 whole entry): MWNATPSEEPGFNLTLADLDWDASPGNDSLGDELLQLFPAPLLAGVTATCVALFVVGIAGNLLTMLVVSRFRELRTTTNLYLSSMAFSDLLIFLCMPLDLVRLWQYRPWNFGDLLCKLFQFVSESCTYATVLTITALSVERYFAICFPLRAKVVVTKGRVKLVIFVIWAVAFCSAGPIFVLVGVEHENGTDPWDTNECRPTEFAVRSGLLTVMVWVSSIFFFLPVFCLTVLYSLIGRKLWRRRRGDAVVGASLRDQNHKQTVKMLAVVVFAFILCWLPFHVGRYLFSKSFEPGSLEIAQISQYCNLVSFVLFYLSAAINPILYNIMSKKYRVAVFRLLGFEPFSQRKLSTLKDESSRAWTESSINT

SMILES | IC50 [1] | IC50 [2]
NC(=O)CNC(=O)CNC(=O)[C@@H](Cc1c[nH]c2ccccc12)NC(=O)[C@H](Cc1ccccc1)NC(=O)[C@H](N)Cc1c[nH]c2ccccc12 | 540 nM | 159 nM
C[C@H](NC(=O)[C@H](C)NC(=O)[C@@H](Cc1c[nH]c2ccccc12)NC(=O)[C@H](Cc1ccccc1)NC(=O)[C@H](N)Cc1c[nH]c2ccccc12)C(N)=O | > 1000 nM | > 1000 nM
CC(C)C[C@H](NC(=O)[C@H](CC(C)C)NC(=O)[C@@H](Cc1c[nH]c2ccccc12)NC(=O)[C@H](Cc1ccccc1)NC(=O)[C@@H](Cc1c[nH]c2ccccc12)NC(=O)[C@@H](N)CC(=O)O)C(N)=O | 60 nM | 260 nM
CC(C)C[C@H](NC(=O)[C@H](CC(C)C)NC(=O)[C@@H](Cc1c[nH]c2ccccc12)NC(=O)[C@H](Cc1ccccc1)NC(=O)[C@H](N)Cc1c[nH]c2ccccc12)C(N)=O | 530 nM | > 1000 nM
CC(C)C[C@H](NC(=O)[C@H](CC(C)C)NC(=O)[C@@H](Cc1c[nH]c2ccccc12)NC(=O)[C@H](Cc1ccccc1)NC(=O)[C@@H](Cc1c[nH]c2ccccc12)NC(=O)[C@@H](N)CCC(N)=O)C(N)=O | 120 nM | 990 nM

Source: ChEMBL document CHEMBL1156448, “Identification of an efficacy switch region in the ghrelin receptor responsible for interchange between agonism and inverse agonism” (J Biol Chem, 2007)
